Consider 29 compounds from US9771337B2, “Neprilysin inhibitors” (THERAVANCE BIOPHARMA R&D IP, LLC, priority 2011, dated 2017).

The structures appear in SMILES notation. Some results are limits rather than exact numbers.

This test addresses T1, human NEP (Homo sapiens, UniProt P08473).
T1 construct: purchased R&D Systems, Minneapolis, Minn; 1182-ZN
In words: In vitro enzyme inhibition assay, inhibitor potency at human NEP. The test is classed as biochemical. Particulars: pKi values at human NEP; recombinant human NEP, fluorogenic peptide substrate 10 μM, 37° C. As to the method:
The inhibitory activities of compounds at human and rat neprilysin (EC 3.4.24.11; NEP) and human angiotensin converting enzyme (ACE) were determined using in vitro assays as described below.
Recombinant human NEP and recombinant human ACE were obtained commercially (R&D Systems, Minneapolis, Minn., catalog numbers 1182-ZN and 929-ZN, respectively). The fluorogenic peptide substrate Mca-D-Arg-Arg-Leu-Dap-(Dnp)-OH (Medeiros et al. (1997) Braz. J. Med. Biol. Res. 30:1157-62; Anaspec, San Jose, Calif.) and Abz-Phe-Arg-Lys(Dnp)-Pro-OH (Araujo et al. (2000) Biochemistry 39:8519-8525; Bachem, Torrance, Calif.) were used in the NEP and ACE assays respectively.
The assays were performed in 384-well white opaque plates at 37° C. using the fluorogenic peptide substrates at a concentration of 10 μM in Assay Buffer (NEP: 50 mM HEPES, pH 7.5, 100 mM NaCl, 0.01% polyethylene glycol sorbitan monolaurate (Tween-20), 10 μM ZnSO4; ACE: 50 mM HEPES, pH 7.5, 100 mM NaCl, 0.01% Tween-20, 1 μM ZnSO4).
Test compounds were assayed over the range of concentrations from […] to 20 μM. Test compounds were added to the enzymes and incubated for 30 minute at 37° C. prior to initiating the reaction by the addition of substrate. Reactions were terminated after 20 minutes of incubation at 37° C. by the addition of glacial acetic acid to a final concentration of 3.6% (v/v).
Plates were read on a fluorometer with excitation and emission wavelengths set to 320 nm and 405 nm, respectively. Inhibition constants were obtained by nonlinear regression of the data using the equation (GraphPad Software, Inc., San Diego, Calif.): v=v0/[1+(I/K′)] where v is the reaction rate, v0 is the uninhibited reaction rate, I is the inhibitor concentration and K′ is the apparent inhibition constant.
Compounds of the invention were tested in this assay and found to have pKi values at human NEP as follows.

T1 sequence (P08473 whole entry): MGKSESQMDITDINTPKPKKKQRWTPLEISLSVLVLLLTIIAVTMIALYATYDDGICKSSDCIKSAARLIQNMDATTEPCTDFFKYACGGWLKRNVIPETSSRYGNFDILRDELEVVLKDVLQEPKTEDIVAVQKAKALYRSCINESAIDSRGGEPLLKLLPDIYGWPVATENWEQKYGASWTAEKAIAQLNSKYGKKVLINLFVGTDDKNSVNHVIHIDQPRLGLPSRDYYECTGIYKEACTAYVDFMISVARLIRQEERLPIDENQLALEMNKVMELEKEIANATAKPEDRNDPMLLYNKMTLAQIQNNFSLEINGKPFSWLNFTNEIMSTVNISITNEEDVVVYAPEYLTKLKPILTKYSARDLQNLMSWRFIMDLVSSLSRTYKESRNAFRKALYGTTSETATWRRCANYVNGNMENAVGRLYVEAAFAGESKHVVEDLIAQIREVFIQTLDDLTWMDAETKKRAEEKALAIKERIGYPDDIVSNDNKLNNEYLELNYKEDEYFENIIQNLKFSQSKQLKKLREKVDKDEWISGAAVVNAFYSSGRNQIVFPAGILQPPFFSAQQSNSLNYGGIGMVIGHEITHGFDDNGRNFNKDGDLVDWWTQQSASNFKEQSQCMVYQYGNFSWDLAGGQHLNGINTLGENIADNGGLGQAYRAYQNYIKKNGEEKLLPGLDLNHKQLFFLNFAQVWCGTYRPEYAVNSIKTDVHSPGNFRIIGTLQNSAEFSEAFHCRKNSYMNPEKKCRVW

One may read the Ki as a measure of affinity in units of concentration, obtained from inhibition or displacement. In the case of `CCCc1nc2c(C)cc(C(=O)N[C@H](Cc3ccccc3)[C@@H](O)C(=O)O)cc2n1Cc1cccnc1` [Example 5-3, (2R,3R)-2-Hydroxy-3-[(7-methyl-2-propyl-3-pyridin-3-ylmethyl-3H-benzoimidazole-5-carbonyl)-amino]-4-phenyl-butyric acid], the Ki is 12.6 to 100 nM.

Regarding `O=C(N[C@H](Cc1ccccc1)[C@@H](O)C(=O)O)c1ccc(C(=O)O)nc1` [Example 5-20, 5-((1R,2R)-1-Benzyl-2-carboxy-2-hydroxy-ethylcarbamoyl)-pyridine-2-carboxylic acid], the Ki is 12.6 to 100 nM.

For `Cc1cc(C(=O)N[C@@H](CC(=O)O)Cc2ccccc2Cl)cc2[nH]nnc12` [Example 7-2, (R)-4-(2-Chloro-phenyl)-3-[(7-methyl-3H-benzotriazole-5-carbonyl)-amino]-butyric acid], the Ki was 12.6 to 100 nM.

Regarding `O=C(N[C@H](Cc1ccccc1Cl)[C@@H](O)C(=O)O)c1cc(=O)n(Cc2ccc(Cl)cc2F)o1` [Example 2-16, (2R,3R)-3-{[2-(4-Chloro-2-fluoro-benzyl)-3-oxo-2,3-dihydro-isoxazole-5-carbonyl]-amino}-4-(2-chloro-phenyl)-2-hydroxy-butyric acid], the Ki is 1.26 to 10 nM.

With `O=C(N[C@H](Cc1ccccc1)[C@@H](O)C(=O)O)c1ccnc(-c2ccccc2C(=O)O)c1` [Example 5-22, 2-[4-((1R,2R)-1-Benzyl-2-carboxy-2-hydroxy-ethylcarbamoyl)-pyridin-2-yl]-benzoic acid], the Ki was 1.26 to 10 nM.

As to `CCCc1nc2c(C)cc(C(=O)N[C@H](Cc3ccccc3)[C@@H](O)C(=O)O)cc2n1Cc1ccc(OC)cc1` [Example 5-7, (2R,3R)-2-Hydroxy-3-{[3-(4-methoxy-benzyl)-7-methyl-2-propyl-3H-benzoimidazole-5-carbonyl]-amino}-4-phenyl-butyric acid], the Ki was 12.6 to 100 nM.

For `O=C(N[C@H](Cc1ccccc1Cl)[C@@H](O)C(=O)O)c1cnc(-c2ccccc2C(=O)O)c(Cl)c1` [Example 2-9, 2-{5-[(1R,2R)-2-Carboxy-1-(2-chloro-benzyl)-2-hydroxy-ethylcarbamoyl]-3-chloro-pyridin-2-yl}-benzoic acid], the Ki is 1.26 to 10 nM.

Consider `O=C(N[C@H](Cc1ccccc1Cl)[C@@H](O)C(=O)O)c1cc2n(n1)COc1ccccc1-2` [Example 2-24, (2R,3R)-4-(2-Chloro-phenyl)-2-hydroxy-3-[(5-oxa-3,3a-diazacyclopenta[a]naphthalene-2-carbonyl)-amino]-butyric acid], for which the Ki is 1.26 to 10 nM.

As to `O=C(N[C@H](Cc1ccccc1Cl)[C@@H](O)C(=O)O)c1cnc2[nH]cnc2c1` [Example 2-36, (2R,3R)-4-(2-Chloro-phenyl)-2-hydroxy-3-[(3H-imidazo[4,5-b]pyridine-6-carbonyl)-amino]-butyric acid], the Ki is 12.6 to 100 nM.

Regarding `O=C(O)C[C@@H](Cc1ccccc1Cl)NC(=O)c1ccc2nn[nH]c2c1` [Example 7-3, (R)-3-[(3H-Benzotriazole-5-carbonyl)-amino]-4-(2-chloro-phenyl)-butyric acid], the Ki was 12.6 to 100 nM.

As for `O=C(N[C@H](Cc1ccccc1Cl)[C@@H](O)C(=O)O)c1cn(O)nn1` [Example 2-21, (2R,3R)-4-(2-Chloro-phenyl)-2-hydroxy-3-[(1-hydroxy-1H-[1,2,3]triazole-4-carbonyl)-amino]-butyric acid], the Ki was 12.6 to 100 nM.

For the compound `O=C(O)C[C@@H](Cc1ccccc1Cl)NC(=O)c1cnc(O)nc1` [Example 7-8, (R)-4-(2-Chloro-phenyl)-3-[(2-hydroxy-pyrimidine-5-carbonyl)-amino]-butyric acid], the Ki was 1.26 to 10 nM.

For the compound `CCCc1nc2c(C)cc(C(=O)N[C@H](Cc3ccccc3)[C@@H](O)C(=O)O)cc2n1CC(N)=O` [Example 5-8, (2R,3R)-3-[(3-Carbamoylmethyl-7-methyl-2-propyl-3H-benzoimidazole-5-carbonyl)-amino]-2-hydroxy-4-phenyl-butyric acid], the Ki is 12.6 to 100 nM.

`O=C(N[C@H](Cc1ccccc1Cl)[C@H](O)C(=O)O)c1cc(Cl)c2nn[nH]c2c1` [Example 2-28, (2S,3R)-3-[(7-Chloro-3H-benzotriazole-5-carbonyl)-amino]-4-(2-chloro-phenyl)-2-hydroxy-butyric acid]: the Ki is 1.26 to 10 nM.

`O=C(N[C@H](Cc1ccccc1Cl)[C@@H](O)C(=O)O)c1cc(-c2ccccc2Cl)on1` [Example 2-15, (2R,3R)-4-(2-Chloro-phenyl)-3-{[5-(2-chloro-phenyl)-isoxazole-3-carbonyl]-amino}-2-hydroxy-butyric acid]: the Ki is 1.26 to 10 nM.

With `O=C(N[C@H](Cc1ccccc1)[C@@H](O)C(=O)O)c1cnc(-c2ccccc2C(=O)O)cn1` [Example 5-19, 2-[5-((1R,2R)-1-Benzyl-2-carboxy-2-hydroxy-ethylcarbamoyl)-pyrazin-2-yl]-benzoic acid], the Ki was 12.6 to 100 nM.

Consider `O=C(N[C@H](Cc1ccccc1)[C@@H](O)C(=O)O)c1cncc(-c2ccccc2C(=O)O)c1` [Example 5-25, 2-[5-((1R,2R)-1-Benzyl-2-carboxy-2-hydroxy-ethylcarbamoyl)-pyridin-3-yl]-benzoic acid], for which the Ki is 1.26 to 10 nM.

As for `O=C(N[C@H](Cc1ccccc1)[C@@H](O)C(=O)O)c1cc2cccn2cn1` [Example 5-30, (2R,3R)-2-Hydroxy-4-phenyl-3-[(pyrrolo[1,2-c]pyrimidine-3-carbonyl)-amino]-butyric acid], the Ki was 12.6 to 100 nM.

As for `Cc1nc(C(=O)N[C@H](Cc2ccccc2Cl)[C@@H](O)C(=O)O)nn1-c1ccc(Cl)cc1` [Example 2-22, (2R,3R)-4-(2-Chloro-phenyl)-3-{[1-(4-chloro-phenyl)-5-methyl-1H-[1,2,4]triazole-3-carbonyl]-amino}-2-hydroxy-butyric acid], the Ki was 12.6 to 100 nM.

In the case of `O=C(N[C@H](Cc1ccccc1)[C@@H](O)C(=O)O)c1ccc2nn[nH]c2c1` [Example 5-11, (2R,3R)-3-[(3H-Benzotriazole-5-carbonyl)-amino]-2-hydroxy-4-phenyl-butyric acid], the Ki is 12.6 to 100 nM.

As for `O=C(O)C[C@@H](Cc1ccccc1Cl)NC(=O)c1cc(Cl)c2nn[nH]c2c1` [Example 7-4, (R)-3-[(7-Chloro-3H-benzotriazole-5-carbonyl)-amino]-4-(2-chloro-phenyl)-butyric acid], the Ki is 12.6 to 100 nM.

For the compound `CCCc1nc2c(C)cc(C(=O)N[C@H](Cc3ccccc3)[C@@H](O)C(=O)O)cc2n1Cc1ccccc1OC` [Example 5-6, (2R,3R)-2-Hydroxy-3-{[3-(2-methoxy-benzyl)-7-methyl-2-propyl-3H-benzoimidazole-5-carbonyl]-amino}-4-phenyl-butyric acid], the Ki was 12.6 to 100 nM.

For `O=C(O)c1cnc(C(=O)N[C@H](Cc2ccccc2)[C@@H](O)C(=O)O)cn1` [Example 5-18, 5-((1R,2R)-1-Benzyl-2-carboxy-2-hydroxy-ethylcarbamoyl)-pyrazine-2-carboxylic acid], the inhibition constant Ki was 12.6 to 100 nM.

As for `O=C(O)C[C@@H](Cc1ccccc1Cl)NC(=O)c1cnc2nn[nH]c2c1` [Example 7-7, (R)-4-(2-Chloro-phenyl)-3-[(1H-[1,2,3]triazolo[4,5-b]pyridine-6-carbonyl)-amino]-butyric acid], the Ki is 12.6 to 100 nM.

`O=C(N[C@H](Cc1ccccc1)[C@@H](O)C(=O)O)c1ccc2c(c1)N1CCCC1C(=O)N2` (stereo partly drawn) [Example 5-1, (2R,3R)-2-Hydroxy-3-[(4-oxo-1,2,3,3a,4,5-hexahydro-pyrrolo[1,2-a]quinoxaline-8-carbonyl)-amino]-4-phenyl-butyric acid]: the Ki is 12.6 to 100 nM.

Regarding `O=C(N[C@H](Cc1ccccc1Cl)[C@@H](O)C(=O)O)c1ccnc(-c2ccccc2C(=O)O)c1` [Example 2-2, 2-{4-[(1R,2R)-2-Carboxy-1-(2-chloro-benzyl)-2-hydroxy-ethylcarbamoyl]-pyridin-2-yl}-benzoic acid], the inhibition constant Ki was at most 1 nM.

For `O=C(N[C@H](Cc1ccccc1Cl)[C@H](O)C(=O)O)c1cc(F)c2nn[nH]c2c1` [Example 2-27, (2S,3R)-4-(2-Chloro-phenyl)-3-[(7-fluoro-3H-benzotriazole-5-carbonyl)-amino]-2-hydroxy-butyric acid], the Ki is 1.26 to 10 nM.

Regarding `O=C(N[C@H](Cc1ccccc1Cl)[C@@H](O)C(=O)O)c1cc(O)no1` [Example 2-11, (2R,3R)-4-(2-Chloro-phenyl)-2-hydroxy-3-[(3-hydroxy-isoxazole-5-carbonyl)-amino]-butyric acid], the Ki was 1.26 to 10 nM.

In the case of `O=C(N[C@H](Cc1ccccc1Cl)[C@@H](O)C(=O)O)c1cnc(-c2ccccc2)o1` [Example 2-18, (2R,3R)-4-(2-Chloro-phenyl)-2-hydroxy-3-[(2-phenyl-oxazole-5-carbonyl)-amino]-butyric acid], the Ki was 12.6 to 100 nM.
